Experimental data from patent publication US10472341B2, “Bicyclic tetrahydrothiazepine derivatives useful for the treatment of neoplastic and/or infectious diseases” (APEIRON BIOLOGICS AG, priority 2015, dated 2019).

Experiments:
[1] = tested on: non-stimulated PBMCs; experiment: Non-stimulated PBMCs: cytokine secretion and signs of T-cell activation; format: cell-based, human
Excerpt: This is an important finding for compounds that shall selectively act on T cells which have been activated by presence of antigen from pathogens or tumors, but shall not lead to an unwanted general activation of all T cells of a patient.

[2] = tested on: aCD3/aCD28-stimulated human CD4+-T-cells; experiment: IL-2 production and activation markers in aCD3/aCD28 stimulated isolated human CD4+-T-cells; format: cell-based; conditions: IL-2 production at 3 μM compound
Outline: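 CD4+ T cells isolated from buffy-coat PBMCs by microbeads were plated in Xvivo medium (1.5*10^5 cells/well) and stimulated with anti-CD3/28 mAbs plus compound. IL-2 measured by ELISA in supernatants at 24 h or 48 h; CD25 and proliferation by flow cytometry, CD69 at 24 h. Activity classes based on IL-2 at 3 μM compound.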

[3] = tested on: CD8 T cells & M21 tumor cells; experiment: CD8 T cells from M21-prestimulated PBMCs restimulated with M21 tumor cells, with or without PD-1 blockade; format: cell-based, human
Experimental: For experiments investigating effects of PD-1 blockade, PBMCs were preincubated with 1 h UV-irradiated M21 tumor cells (50000 tumor cells per 1 Mill. PBMCs) for 14 days. […] Compounds and anti-PD-1 antibody (Nivolumab) or control antibody without direct effects on CD8 T cells (Ipilimumab) were added where indicated.
[…] Example 107, no antibody (no Ig), anti-PD-1 antibody (Nivolumab) or control antibody without direct effects on CD8 T cells (Ipilimumab) were included where indicated.

[4] = Ex. 107 0.03 μM, with Ipilimumab
[5] = Ex. 107 0.03 μM, with Nivolumab
[6] = Ex. 107 0.1 μM, with Ipilimumab
[7] = Ex. 107 0.3 μM, with Ipilimumab

Cl.N[C@H]1CS(=O)(=O)c2cc(F)c(C(=O)N[C@H]3CC3(F)F)cc2N(Cc2ccc(Cl)cc2)C1=O (single isomer, unassigned) [Example 107]
cytokine secretion or other signs of T-cell activation [1]: did not enhance cytokine secretion or other signs of T-cell activation
Activity Class CD4+ [2]: A (IL-2 production at 3 μM compound concentration >10 ng/mL)
enhancement of cytokine production ([3]; CD8 T cells in the absence of tumor cells): such effect was not detected in the absence of tumor cells
production of IL-2 and IFN-gamma ([3]; CD8 T cells restimulated with M21 tumor cells): enhanced production of both cytokines specifically upon tumor cell contact
Average Granzyme B ([3]; Ex. 107 0.03 μM, no Ig): 1.971 ng/mL
Average IFN-g ([3]; Ex. 107 0.03 μM, no Ig): 0.059 ng/mL
Average IL-2 ([3]; Ex. 107 0.03 μM, no Ig): 0.048 ng/mL
Average Number of living M21 tumor cells ([3]; Ex. 107 0.03 μM, no Ig): 16433
Average Granzyme B [3, 4]: 1.639 ng/mL
Average IFN-g [3, 4]: 0.057 ng/mL
Average IL-2 [3, 4]: 0.041 ng/mL
Average Number of living M21 tumor cells [3, 4]: 21424
Average Granzyme B [3, 5]: 5.522 ng/mL
Average IFN-g [3, 5]: 0.772 ng/mL
Average IL-2 [3, 5]: 0.105 ng/mL
Average Number of living M21 tumor cells [3, 5]: 5574
Average Granzyme B ([3]; Ex. 107 0.1 μM, no Ig): 3.645 ng/mL
Average IFN-g ([3]; Ex. 107 0.1 μM, no Ig): 0.313 ng/mL
Average IL-2 ([3]; Ex. 107 0.1 μM, no Ig): 0.106 ng/mL
Average Number of living M21 tumor cells ([3]; Ex. 107 0.1 μM, no Ig): 9029
Average Granzyme B [3, 6]: 3.905 ng/mL
Average IFN-g [3, 6]: 0.363 ng/mL
Average IL-2 [3, 6]: 0.100 ng/mL
Average Number of living M21 tumor cells [3, 6]: 10688
Average Granzyme B ([3]; Ex. 107 0.1 μM, with Nivolumab): 9.246 ng/mL
Average IFN-g ([3]; Ex. 107 0.1 μM, with Nivolumab): 2.282 ng/mL
Average IL-2 ([3]; Ex. 107 0.1 μM, with Nivolumab): 0.258 ng/mL
Average Number of living M21 tumor cells ([3]; Ex. 107 0.1 μM, with Nivolumab): 3361
Average Granzyme B ([3]; Ex. 107 0.3 μM, no Ig): 5.469 ng/mL
Average IFN-g ([3]; Ex. 107 0.3 μM, no Ig): 1.114 ng/mL
Average IL-2 ([3]; Ex. 107 0.3 μM, no Ig): 0.259 ng/mL
Average Number of living M21 tumor cells ([3]; Ex. 107 0.3 μM, no Ig): 3822
Average Granzyme B [3, 7]: 6.001 ng/mL
Average IFN-g [3, 7]: 1.098 ng/mL
Average IL-2 [3, 7]: 0.222 ng/mL
Average Number of living M21 tumor cells [3, 7]: 4339
Average Granzyme B ([3]; Ex. 107 0.3 μM, with Nivolumab): 12.040 ng/mL
Average IFN-g ([3]; Ex. 107 0.3 μM, with Nivolumab): 4.565 ng/mL
Average IL-2 ([3]; Ex. 107 0.3 μM, with Nivolumab): 0.590 ng/mL
Average Number of living M21 tumor cells ([3]; Ex. 107 0.3 μM, with Nivolumab): 1648
Average Granzyme B ([3]; Ex. 107 1 μM, no Ig): 7.246 ng/mL
Average IFN-g ([3]; Ex. 107 1 μM, no Ig): 1.963 ng/mL
Average IL-2 ([3]; Ex. 107 1 μM, no Ig): 0.389 ng/mL
Average Number of living M21 tumor cells ([3]; Ex. 107 1 μM, no Ig): 2642
Average Granzyme B ([3]; Ex. 107 1 μM, with Ipilimumab): 7.906 ng/mL
Average IFN-g ([3]; Ex. 107 1 μM, with Ipilimumab): 2.350 ng/mL
Average IL-2 ([3]; Ex. 107 1 μM, with Ipilimumab): 0.478 ng/mL
Average Number of living M21 tumor cells ([3]; Ex. 107 1 μM, with Ipilimumab): 2104
Average Granzyme B ([3]; Ex. 107 1 μM, with Nivolumab): 12.985 ng/mL
Average IFN-g ([3]; Ex. 107 1 μM, with Nivolumab): 5.846 ng/mL
Average IL-2 ([3]; Ex. 107 1 μM, with Nivolumab): 0.954 ng/mL
Average Number of living M21 tumor cells ([3]; Ex. 107 1 μM, with Nivolumab): 1574
Average Granzyme B ([3]; Ex. 107 3 μM, no Ig): 8.208 ng/mL
Average IFN-g ([3]; Ex. 107 3 μM, no Ig): 2.469 ng/mL
Average IL-2 ([3]; Ex. 107 3 μM, no Ig): 0.523 ng/mL
Average Number of living M21 tumor cells ([3]; Ex. 107 3 μM, no Ig): 2075
Average Granzyme B ([3]; Ex. 107 3 μM, with Ipilimumab): 9.283 ng/mL
Average IFN-g ([3]; Ex. 107 3 μM, with Ipilimumab): 2.745 ng/mL
Average IL-2 ([3]; Ex. 107 3 μM, with Ipilimumab): 0.555 ng/mL
Average Number of living M21 tumor cells ([3]; Ex. 107 3 μM, with Ipilimumab): 2083
Average Granzyme B ([3]; Ex. 107 3 μM, with Nivolumab): 14.403 ng/mL
Average IFN-g ([3]; Ex. 107 3 μM, with Nivolumab): 6.041 ng/mL
Average IL-2 ([3]; Ex. 107 3 μM, with Nivolumab): 1.285 ng/mL
Average Number of living M21 tumor cells ([3]; Ex. 107 3 μM, with Nivolumab): 1429
Average Granzyme B ([3]; Ex. 107 10 μM, no Ig): 8.378 ng/mL
Average IFN-g ([3]; Ex. 107 10 μM, no Ig): 3.113 ng/mL
Average IL-2 ([3]; Ex. 107 10 μM, no Ig): 0.643 ng/mL
Average Number of living M21 tumor cells ([3]; Ex. 107 10 μM, no Ig): 2000
Average Granzyme B ([3]; Ex. 107 10 μM, with Ipilimumab): 8.227 ng/mL
Average IFN-g ([3]; Ex. 107 10 μM, with Ipilimumab): 3.171 ng/mL
Average IL-2 ([3]; Ex. 107 10 μM, with Ipilimumab): 0.669 ng/mL
Average Number of living M21 tumor cells ([3]; Ex. 107 10 μM, with Ipilimumab): 2033
Average Granzyme B ([3]; Ex. 107 10 μM, with Nivolumab): 13.079 ng/mL
Average IFN-g ([3]; Ex. 107 10 μM, with Nivolumab): 6.729 ng/mL
Average IL-2 ([3]; Ex. 107 10 μM, with Nivolumab): 1.596 ng/mL
Average Number of living M21 tumor cells ([3]; Ex. 107 10 μM, with Nivolumab): 1799
reduction of viable tumor cells ([3]; example 107 in the presence of Nivolumab): even more pronounced and reached with lower compound concentrations in the presence of Nivolumab
enhancement of cytokine production ([3]; example 107 together with anti-PD-1 antibody (Nivolumab), CD8 T cells & M21): the enhancement of cytokine production was synergistic, i.e. more than additive
granzyme release upon tumor-cell contact ([3]; example 107 with PD-1 blockade, CD8 T cells & M21): mediated an synergistic enhancement of the cytotoxic effector granzyme release upon tumor-cell contact
viable tumor cells ([3]; immune cell cocultures with M21 tumor cells): strong reduction of viable tumor cells
